Reference: article PMC9911797, “Novel TLR7/8 agonists promote activation of HIV-1 latent reservoirs and human T and NK cells” (Frontiers in Microbiology, 2023)

Key:
hTLR7 = target: T1, hTLR7 (Homo sapiens, UniProt Q9NYK1); assay: HEK-Blue hTLR7 SEAP reporter assay; assay type: cell-based; conditions: HEK-Blue hTLR7 cells, SEAP in supernatant
T1 construct: host or cells: HEK-Blue hTLR7 (HEK293-derived)
T1 sequence (Q9NYK1 27-1049): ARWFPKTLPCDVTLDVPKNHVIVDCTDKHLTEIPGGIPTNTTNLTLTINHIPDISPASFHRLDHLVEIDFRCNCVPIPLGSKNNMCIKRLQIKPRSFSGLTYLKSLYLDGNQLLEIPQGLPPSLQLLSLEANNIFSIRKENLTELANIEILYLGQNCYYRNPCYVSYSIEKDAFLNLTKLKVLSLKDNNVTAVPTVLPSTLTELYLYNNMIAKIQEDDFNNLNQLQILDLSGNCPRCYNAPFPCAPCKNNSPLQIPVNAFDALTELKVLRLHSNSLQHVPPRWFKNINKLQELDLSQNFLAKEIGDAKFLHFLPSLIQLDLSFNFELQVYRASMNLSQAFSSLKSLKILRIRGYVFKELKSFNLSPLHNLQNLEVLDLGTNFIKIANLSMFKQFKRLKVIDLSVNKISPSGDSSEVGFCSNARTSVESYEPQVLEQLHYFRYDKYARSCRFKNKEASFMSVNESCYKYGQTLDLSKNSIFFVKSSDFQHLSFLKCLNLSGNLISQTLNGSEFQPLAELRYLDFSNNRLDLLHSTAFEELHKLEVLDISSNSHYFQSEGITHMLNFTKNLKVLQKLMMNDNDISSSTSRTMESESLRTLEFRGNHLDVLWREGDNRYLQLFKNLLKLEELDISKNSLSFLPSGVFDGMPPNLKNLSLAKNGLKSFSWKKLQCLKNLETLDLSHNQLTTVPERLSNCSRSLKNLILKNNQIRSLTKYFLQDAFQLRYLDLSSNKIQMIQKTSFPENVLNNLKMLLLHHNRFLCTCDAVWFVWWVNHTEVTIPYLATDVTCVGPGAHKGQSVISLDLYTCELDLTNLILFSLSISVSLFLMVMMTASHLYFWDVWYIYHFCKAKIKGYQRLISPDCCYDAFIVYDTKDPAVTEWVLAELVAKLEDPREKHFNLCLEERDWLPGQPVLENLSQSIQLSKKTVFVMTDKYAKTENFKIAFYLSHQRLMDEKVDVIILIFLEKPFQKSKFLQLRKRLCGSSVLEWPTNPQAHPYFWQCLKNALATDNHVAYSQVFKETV
Protocol: (§1) Starting with the lead compound, 76 pyrido [3,2-d] pyrimidine derivatives were synthesized and optimized through structural modification from the deep hydrophobic region to the solvent-exposed region. Seventy-six compounds were evaluated for their in vitro activity using HEK-Blue hTLR7 or hTLR8 reporter cells, stably expressing the human TLR7 or TLR8 and an NF-κB/AP1-inducible SEAP (secreted embryonic alkaline phosphatase reporter gene).
(§2) Add 20 μl various concentrations of TLR agonists (10 dilutions) and in a 96-well plate. Then HEK-Blue hTLR7 and hTLR8 cells were suspended to 4 × 10^5 cells/ml in HEK-Blue Detection (InvivoGen) medium and added 180 μl per well. The plates were incubated at 37°C in 5% CO2 for 12 ~ 16 h. Stimulation with a hTLR7or hTLR8 ligand activates NF-κB to induce the production of secreted embryonic alkaline phosphatase (SEAP) in the culture supernatant. SEAP could be measured at OD630nm on an ELISA plate reader.

hTLR8 = target: T2, hTLR8 (Homo sapiens, UniProt Q9NR97); assay: HEK-Blue hTLR8 SEAP reporter assay; assay type: cell-based; conditions: HEK-Blue hTLR8 cells, SEAP in supernatant
T2 construct: host or cells: HEK-Blue hTLR8 (HEK293-derived)
T2 sequence (Q9NR97 27-1041): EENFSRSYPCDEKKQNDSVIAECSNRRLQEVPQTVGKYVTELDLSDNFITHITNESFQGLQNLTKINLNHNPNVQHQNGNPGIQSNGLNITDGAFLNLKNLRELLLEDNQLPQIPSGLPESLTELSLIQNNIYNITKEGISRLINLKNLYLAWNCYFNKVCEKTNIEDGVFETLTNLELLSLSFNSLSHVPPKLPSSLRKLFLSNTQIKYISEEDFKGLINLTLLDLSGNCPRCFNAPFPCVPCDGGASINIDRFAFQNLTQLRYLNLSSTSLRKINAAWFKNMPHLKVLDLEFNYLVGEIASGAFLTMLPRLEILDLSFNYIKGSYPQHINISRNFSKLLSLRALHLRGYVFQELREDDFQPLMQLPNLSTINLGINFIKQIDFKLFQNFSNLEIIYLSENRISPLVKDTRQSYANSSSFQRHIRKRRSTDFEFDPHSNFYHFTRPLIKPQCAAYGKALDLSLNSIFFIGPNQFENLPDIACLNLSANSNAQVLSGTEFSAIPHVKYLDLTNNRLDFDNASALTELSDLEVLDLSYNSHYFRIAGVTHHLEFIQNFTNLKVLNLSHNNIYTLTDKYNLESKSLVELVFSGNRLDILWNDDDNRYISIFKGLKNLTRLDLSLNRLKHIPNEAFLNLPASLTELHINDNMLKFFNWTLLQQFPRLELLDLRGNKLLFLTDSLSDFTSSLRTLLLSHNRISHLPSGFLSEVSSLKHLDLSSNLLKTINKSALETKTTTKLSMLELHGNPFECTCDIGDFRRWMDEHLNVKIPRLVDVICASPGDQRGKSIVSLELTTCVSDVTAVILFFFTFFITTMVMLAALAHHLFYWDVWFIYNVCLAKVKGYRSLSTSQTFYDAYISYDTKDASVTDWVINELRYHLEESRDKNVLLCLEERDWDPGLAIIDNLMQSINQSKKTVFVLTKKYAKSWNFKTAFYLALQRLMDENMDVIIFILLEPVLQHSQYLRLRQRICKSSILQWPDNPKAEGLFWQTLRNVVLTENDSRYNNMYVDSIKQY
Protocol: as §1, §2

PBMCs = assay: Inflammatory cytokine release from PBMCs (Legend-plex); assay type: cell-based, human; conditions: PBMC culture supernatant 48 h after stimulation
Protocol: Then, a total of 13 human inflammatory cytokines and chemokines (IL-1β, IFN-α2, IFN-γ, TNF-α, CCL2, IL-6, CXCL8, IL-10, IL-12p70, IL-17A, IL-18, IL-23, and IL-33) were measured in the culture supernatant 48 h after stimulation and compared with two healthy donors. Only 8 out of 13 became detectable and largely fell into the proinflammatory cytokines (IL-1β, IL-6, IL-18, IL-23, and TNF-α), Th1-and Th2-type cytokines (IL-10 and IFN-γ), and type I (IFN-α2) and type II (IFN-γ) interferons (Figures 2B–I).
The supernatants from PBMCs culture were collected and stored at-20°C until analysis. For the Multi-cytokines assay, the Legend-plex Human Inflammation Panel 1 kit (Biolegend) was used according to the manual. Thirteen human inflammatory cytokines/chemokines were measured, including IL-1β, IFN-α2, IFN-γ, TNF-α, MCP-1 (CCL2), IL-6, IL-8 (CXCL8), IL-10, IL-12p70, IL-17A, IL-18, IL-23, and IL-33.

[1] = system: PBMCs from HIV-1 well-suppressed patients; assay: Latent HIV-1 activation in PBMCs of well-suppressed patients (HIV-1 RNA copies in supernatant, RT-qPCR); assay type: cell-based, human; conditions: for HIV-1 RNA copies in the supernatant and TNF-α concentration: PBMCs from seven well-suppressed patients, IgG1-control antibody vs anti-TNF-α; for HIV-1 RNA copies in the supernatant: patient PBMCs (n = 6), 96 h at 37°C
Text: To study the potential of novel TLR7/8 in activating latent HIV-1 reservoir, TLR7/8 dual agonists D018 and C142 and TLR8-specific agonist B-130a were mixed with PBMCs from six well-suppressed patients whose viral load in the plasma was less than 50 copies/ml, and CD4 counts were more than […] for more than 6 years.
TLR7/8 agonists activated PBMCs from seven well-suppressed patients with the addition of anti-TNF-α monoclonal antibody or IgG1-control monoclonal antibody, respectively. D018, B-130a, and the positive control PMA + ION increased the levels of HIV-1 RNA copies in the supernatant and the concentration of TNF-α concomitantly.
To measure the HIV viral load, viral RNA from supernatants was extracted by MagaBio Plus Viral DNA / RNA Purification Kit (BIOER). The reverse-transcription and analysis of RNA copies were performed using the HIV-1 Real-time PCR detection kit (BIOER).

HIV-1 = system: HIV-1; parameters: method as in SenGupta et al., 2021; conditions: patients treated with oral GS9620, phase 1b, placebo 4.1 weeks; ref SenGupta et al., 2021; cited from earlier work
[2] = system: J-LAT cells co-cultured with MDDCs; assay: J-LAT and MDDC co-culture assay (GFP+ cells and TNF-α); conditions: 1 μM, 48 h
[3] = system: J-LAT CD4 T cell line (latent HIV-1); assay: J-LAT activation by supernatant of agonist-stimulated healthy donor PBMCs (GFP+ cells, FACS); conditions: 48 h, highest concentration 16 μM
NF-κB p65 in U1 cells = assay: Nuclear phospho-p65-S536 in U1 cells (western blot); conditions: 1 μM, 30 min, 37°C
Protocol: For measuring NF-kB p65 and phosphor-p65 S536, 5 × 10^6 U1 cells were stimulated by 1 μM TLR7/8 agonists D018 (7/8), B-130a (8), GS9620 (7), and DMSO (negative control) for 30 min. Nuclear proteins were extracted by NE-PER Nuclear and Cytoplasmic Extraction Reagents (Pierce) and measured the concentration using BCA protein measure kit (Thermo).
Equal amounts of extracts were loaded on the 10% polyacrylamide gel SDS-PAGE. Then proteins were electro-transferred to nitrocellulose membranes 300 mA for 90 min and incubated with blocking buffer (5% nonfat dry milk and 0.1% Tween 20 in TBS) for 1 h at room temperature. NF-kB p65, phosphorylate p65-s529, and PCNA (as the control of nuclear protein) were separately detected by NF-κB p65 Mouse mAb (CST), Phospho-NF-κB p65 Ser536 Rabbit mAb (CST) and PCNA Rabbit mAb (CST) in blocking buffer overnight at 4°C. After washing 5 times in TBST (1 × TBS + 0.1% Tween), the membranes were incubated with anti-mouse IgG (H + L) HRP (Promega) and anti-rabbit IgG (H + L) HRP (Promega) for 1 h at room temperature. After washing 5 times in TBST, membranes were incubated with ECL detection reagents (Bio-red) and then developed in Bio-red imager.

[4] = system: U1 monocytic cell line (latent HIV-1); assay: HIV-1 p24 production in latently infected U1 cells (ELISA); conditions: 1 μM, TLR8- or MyD88-shRNA U1 vs sham-knockdown
[5] = system: J-LAT CD4 T cell line (latent HIV-1); assay: Direct stimulation of J-LAT cells (GFP-positive cells)

Compound	EC50 (hTLR7) [nM]	EC50 (hTLR8) [nM]	also measured
CCCCNc1nc(N)nc2ccc(C(C)c3ccc(CN(C)C)cc3)nc12 (stereo not shown) [C163]	1650	178	
CCCCNc1nc(N)nc2ccc(Cl)nc12 [LB06]	2600	2000	
CCCCNc1nc(N)nc2ccc(Cc3ccc(CN4CCOCC4)cc3)nc12 [WA86]	118	51	
CCCN(CCC)C(=O)C1=Cc2ccc(-c3ccc(C(=O)N4CCCC4)cc3)cc2N=C(N)C1 [VTX-2337, reference compound]	> 10000	151	release of inflammatory cytokines (PBMCs): comparable potency but were invariably higher than TLR7-specific GS9620
CCCCOc1nc(N)c2c(n1)N(Cc1cccc(CN3CCCC3)c1)CC(=O)N2 [GS9620, reference compound]	353	> 10000	HIV-1 RNA copies in the supernatant and TNF-α concentration [1]: low detectable levels; viral rebound time (HIV-1): 5.1 weeks; GFP+ J-LAT cells and soluble TNF-α in MDDC co-culture [2]: no detectable levels; GFP-positive J-LAT cells, PBMC supernatant [3]: did not show any detectable effect
COCCNc1nc(N)nc2ccc(Cc3ccc(CN(C)C)cc3)nc12 [199-1]	117	9.69	
CCCCCc1cc(Cc2ccc(CN(C)C)cc2)c(C)nc1N [B-130a]	> 10000	55.2	HIV-1 RNA copies in the supernatant and TNF-α concentration [1]: increased; HIV-1 RNA copies in the supernatant [1]: activated detectable levels of HIV-1 RNA copies; release of inflammatory cytokines (PBMCs): comparable potency but were invariably higher than TLR7-specific GS9620; nuclear phos-p65-S536 (NF-κB p65 in U1 cells): significant increase; GFP+ J-LAT cells and soluble TNF-α in MDDC co-culture [2]: marked increase; p24 production after TLR8 or MyD88 knockdown [4]: essentially abolished the p24 production
TNF-α			GFP-positive J-LAT cells, direct stimulation [5]: could activate GFP expression
CCCCCc1cc2nc(Cc3ccc(CN(C)C)cc3)ccc2nc1N [WA175]	> 10000	197	
CCCCNc1nc(N)nc2ccc(Cc3ccc(CN(C)C)cc3OC)nc12 [C142]	20	44.1	HIV-1 RNA copies in the supernatant [1]: activated detectable levels of HIV-1 RNA copies; release of inflammatory cytokines (PBMCs): either equivalent (IL-6, IL-10, IL-23, and IFN-γ) or higher (IL-1β, IL-18, and TNF-α) than the commercially available R848
CCCCNc1nc(N)nc2ccc(Cc3ccc(CN4CCCC4)cc3)nc12 [C008]	101	17.3	
CCCCCc1cc(Cc2ccc(CN3CCCC3)cc2)c(C)nc1N [B-130b]	> 10000	67.2	
IFN-α			GFP-positive J-LAT cells, direct stimulation [5]: failed to activate J-LAT cells
